From patent publication US20230002361A1, “2H-INDAZOLE DERIVATIVES AND THEIR USE IN THE TREATMENT OF DISEASE” (BIOGEN MA INC., priority 2019, published 2023)
Counter-ions that a name gives are not always drawn. Like-named read-outs stand apart in the source and are kept apart here.

Assays:
[1] = biological target: T1, IRAK4 (Homo sapiens, UniProt Q9NWZ3); experiment: IRAK4 MSD Biochemical Assay (1 mM ATP, 2 h); details: room temperature
T1 construct: with 0.1 nM IRAK4, 1.6 μM of biotinylated peptide substrate and 10 μM ATP
T1 sequence (Q9NWZ3 1-460): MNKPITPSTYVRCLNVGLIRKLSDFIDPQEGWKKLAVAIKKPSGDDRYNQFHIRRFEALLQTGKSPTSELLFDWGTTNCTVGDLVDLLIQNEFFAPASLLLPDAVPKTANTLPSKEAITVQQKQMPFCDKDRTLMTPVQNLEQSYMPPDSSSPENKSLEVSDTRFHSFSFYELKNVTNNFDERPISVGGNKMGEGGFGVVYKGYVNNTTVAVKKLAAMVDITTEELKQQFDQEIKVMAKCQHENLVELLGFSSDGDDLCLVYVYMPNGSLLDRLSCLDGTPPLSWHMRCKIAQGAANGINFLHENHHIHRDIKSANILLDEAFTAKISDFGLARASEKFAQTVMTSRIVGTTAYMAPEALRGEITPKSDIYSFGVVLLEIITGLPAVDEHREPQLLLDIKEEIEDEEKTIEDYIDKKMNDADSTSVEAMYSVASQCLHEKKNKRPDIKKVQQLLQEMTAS
Method: The 2-hour 10 μM ATP Biochemical Assay employs a MesoScale Detection (MSD) format.
The activity is quenched with 11 μl of 70 mM EDTA, pH 8.
To detect the phosphorylated biotinylated peptide substrate, 30 μl of the quenched reaction mixture is added to equivalent wells of a 384 well streptavidin coated MesoScale plate (Meso Scale Discovery #L21SA-1). After a 1 hour incubation of the plate for 1 hour at room temperature with gentle mixing, the plate wells are washed 3 times with 50 mM Tris, pH 7.5, 150 mM NaCl, 0.02% Tween-20.
A 25 μl volume of 1:500 anti-P-Threonine Rabbit polyclonal Antibody plus 1:500 Goat-anti-Rabbit Sulfo Tag Antibody (Meso Scale Discovery R32AB-1) in 50 mM Tris, pH 7.5, 150 mM NaCl, 0.02% Tween-20 plus 2% BSA is then added to each well. After a 1-hour incubation of the plate for 1 hour at room temperature with gentle mixing, the plate wells are washed, 3 times with 50 mM Tris, pH 7.5, 150 mM NaCl, 0.02% Tween-20. A 40 μl volume of 2×MSD Read Buffer (Meso Scale Discovery R92TC-1) is added to each well, and the plate is read immediately in an MSD Plate Reader (Meso Scale Discovery).
The 2-hour 1 mM ATP IRAK4 Biochemical assay was performed as described above, but with […] IRAK4 and 1 mM ATP.

[2] = biological target: T2, MDR1 (P-gp) (Homo sapiens, UniProt P08183); experiment: MDR1-MDCK assay (efflux ratio); assay type: in vitro ADME; details: human, MDCK-MDR1, 1 μM compound, 120 minutes incubation; read-out: MDR1-MDCK Efflux Ratio; (B-A/A-B)
T2 construct: host or cells: MDCK cells
Method: • The assay makes use of human MDR1 transfected MDCK cells (NIH cell line in-licensed from Absorption Systems) • The compounds are tested at 1 μM concentration prepared in transport buffer (Hank's balanced salt solution with HEPES) • MDR1-MDCK cell are cultured for 7 days in 96 well transwell insert plates (Corning). Insert plates are washed before the assay and TEER (Trans epithelial electric resistance) is measured. • These plates are loaded with test compound solution 85 μL for A-B transport and 260 μL for B-A transport in the respective donor compartment.
Mass balance=100×((Vr×Cr^final)+(Vd×Cd^final))/(Vd×CE) • Where: • dCr/dt is the cumulative concentration in the receiver compartment versus time in μM s^−1 • Vr is the volume of the receiver compartment in cm^3 • Vd is the volume of the donor compartment in cm^3 • A is the area of the insert (0.143 cm^2 for 96-well insert) • CE is the estimated experimental concentration (Time=0) of the dosing solution • Cr^final is the concentration of the receiver at the end of the incubation period • Cd^final is the concentration of the donor at the end of the incubation period.

[3] = read-out: IRAK4 MSD Biochemical Assay (1 mM ATP, 2 h) IC50

T2 sequence (P08183 whole entry): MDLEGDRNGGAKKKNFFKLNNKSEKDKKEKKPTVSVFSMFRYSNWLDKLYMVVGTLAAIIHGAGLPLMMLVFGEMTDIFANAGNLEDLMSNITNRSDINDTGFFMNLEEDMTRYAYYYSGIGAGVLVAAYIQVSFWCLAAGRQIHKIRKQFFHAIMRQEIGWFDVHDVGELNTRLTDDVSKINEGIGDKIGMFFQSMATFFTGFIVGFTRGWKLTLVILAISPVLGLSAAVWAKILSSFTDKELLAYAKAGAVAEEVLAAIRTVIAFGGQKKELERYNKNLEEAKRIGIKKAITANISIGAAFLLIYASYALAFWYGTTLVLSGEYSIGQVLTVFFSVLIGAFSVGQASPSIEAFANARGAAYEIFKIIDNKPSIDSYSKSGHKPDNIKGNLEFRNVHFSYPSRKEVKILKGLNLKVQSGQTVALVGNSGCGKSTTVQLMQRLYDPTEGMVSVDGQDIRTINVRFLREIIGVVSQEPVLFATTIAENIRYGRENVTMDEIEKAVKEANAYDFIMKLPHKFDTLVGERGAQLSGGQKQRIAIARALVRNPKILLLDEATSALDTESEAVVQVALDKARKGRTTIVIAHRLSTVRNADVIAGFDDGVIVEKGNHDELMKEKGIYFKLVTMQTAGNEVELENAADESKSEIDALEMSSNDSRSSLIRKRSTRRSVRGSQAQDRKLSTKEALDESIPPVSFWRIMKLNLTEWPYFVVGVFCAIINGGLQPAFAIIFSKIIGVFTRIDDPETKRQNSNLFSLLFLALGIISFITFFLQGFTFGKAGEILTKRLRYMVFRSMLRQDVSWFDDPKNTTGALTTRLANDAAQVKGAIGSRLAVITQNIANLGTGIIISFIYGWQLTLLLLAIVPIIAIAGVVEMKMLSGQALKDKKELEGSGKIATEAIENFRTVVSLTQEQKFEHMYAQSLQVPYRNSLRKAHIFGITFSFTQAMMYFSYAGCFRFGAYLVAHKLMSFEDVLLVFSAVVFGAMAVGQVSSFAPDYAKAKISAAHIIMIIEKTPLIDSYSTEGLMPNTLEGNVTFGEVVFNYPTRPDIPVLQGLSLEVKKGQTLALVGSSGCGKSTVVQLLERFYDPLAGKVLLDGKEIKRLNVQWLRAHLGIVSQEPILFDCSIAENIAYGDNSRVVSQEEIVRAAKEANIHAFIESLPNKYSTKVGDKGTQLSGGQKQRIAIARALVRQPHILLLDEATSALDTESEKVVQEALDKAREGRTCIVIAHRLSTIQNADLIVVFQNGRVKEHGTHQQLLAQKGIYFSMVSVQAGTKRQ

| SMILES | IC50 [1, 3] [nM] | efflux ratio at 120 min, 1 μM [2] | IC50 ([1]; IRAK4 MSD Biochemical Assay (1 mM ATP, 2 h) IC50 (nM)) [nM] |
| --- | --- | --- | --- |
| CC(C)Oc1cc2nn(CC34COC(C)(C3)C4)cc2cc1C(=O)Nc1cccc(C(F)F)n1.Cl [Example 27, N-(6-(difluoromethyl)pyridin-2-yl)-6-isopropoxy-2-((1-methyl-2-oxabicyclo[2.1.1]hexan-4-yl)methyl)-2H-indazole-5-carboxamide hydrochloride] | 5.4 | 1.3 | – |
| COCCn1cc2cc(C(=O)Nc3cccc(C(F)F)n3)c(OC(C)C)cc2n1.Cl [Example 28, N-(6-(difluoromethyl)pyridin-2-yl)-6-isopropoxy-2-(2-methoxyethyl)-2H-indazole-5-carboxamide hydrochloride] | 4.4 | 0.4 | – |
| COC(C)(C)CCn1cc2cc(C(=O)Nc3cccc(C(F)F)n3)c(OC(C)C)cc2n1.Cl [Example 29, N-(6-(difluoromethyl)pyridin-2-yl)-6-isopropoxy-2-(3-methoxy-3-methylbutyl)-2H-indazole-5-carboxamide hydrochloride] | 0.6 | 0.8 | – |
| CC(C)Oc1cc2nn(C3COC3)cc2cc1C(=O)Nc1cccc(C(F)F)n1 [Example 30, N-(6-(difluoromethyl)pyridin-2-yl)-6-isopropoxy-2-(oxetan-3-yl)-2H-indazole-5-carboxamide] | 6.2 | 0.6 | – |
| CCOc1cc2nn(CCC(C)(C)O)cc2cc1C(=O)Nc1cccc(C(F)F)n1 [Example 31, N-(6-(difluoromethyl)pyridin-2-yl)-6-ethoxy-2-(3-hydroxy-3-methylbutyl)-2H-indazole-5-carboxamide] | 0.7 | 1.9 | – |
| CC(C)Oc1nc2nn(CCC(C)(C)O)cc2cc1C(=O)Nc1cccc(C(F)F)n1 [Example 32, N-(6-(difluoromethyl)pyridin-2-yl)-2-(3-hydroxy-3-methylbutyl)-6-isopropoxy-2H-pyrazolo[3,4-b]pyridine-5-carboxamide] | 0.4 | 3.4 | – |
| CC(C)Oc1cc2nn(CCC(C)(C)O)cc2cc1C(=O)Nc1ccn(C(F)F)n1 [Example 33, N-(1-(difluoromethyl)-1H-pyrazol-3-yl)-2-(3-hydroxy-3-methylbutyl)-6-isopropoxy-2H-indazole-5-carboxamide] | 4.3 | 8.6 | – |
| CC(C)Oc1cc2nn(CCC(C)(C)O)cc2cc1C(=O)Nc1cnn2cccnc12 [Example 34, 2-(3-Hydroxy-3-methylbutyl)-6-isopropoxy-N-(pyrazolo[1,5-a]pyrimidin-3-yl)-2H-indazole-5-carboxamide] | 1 | 14.2 | – |
| COCCCn1cc2cc(C(=O)Nc3cnn4cccnc34)c(OC(C)C)cc2n1 [Example 35, 6-Isopropoxy-2-(3-methoxypropyl)-N-(pyrazolo[1,5-a]pyrimidin-3-yl)-2H-indazole-5-carboxamide] | 5 | 1.1 | – |
| CC(C)Oc1nc2nn(C3CCCOC3)cc2cc1C(=O)Nc1cnn2cccnc12 (centres unmarked) [Example 36, 6-Isopropoxy-N-(pyrazolo[1,5-a]pyrimidin-3-yl)-2-(tetrahydro-2H-pyran-3-yl)-2H-pyrazolo[3,4-b]pyridine-5-carboxamide] | 0.5 | 2.2 | – |
| CC(C)Oc1nc2nn(C3CCOC3)cc2cc1C(=O)Nc1cnn2cccnc12 (centres unmarked) [Example 37, 6-Isopropoxy-N-(pyrazolo[1,5-a]pyrimidin-3-yl)-2-(tetrahydrofuran-3-yl)-2H-pyrazolo[3,4-b]pyridine-5-carboxamide] | 6.4 | 2.2 | – |
| CC(C)Oc1cc2nn(C3COC3)cc2cc1C(=O)Nc1cnn2cccnc12 [Example 38, 6-Isopropoxy-2-(oxetan-3-yl)-N-(pyrazolo[1,5-a]pyrimidin-3-yl)-2H-indazole-5-carboxamide] | 11.2 | 2.3 | – |
| CC(C)Oc1cc2nn(CC3CCOC3)cc2cc1C(=O)Nc1cnn2cccnc12 (centres unmarked) [Example 39, 6-Isopropoxy-N-(pyrazolo[1,5-a]pyrimidin-3-yl)-2-((tetrahydrofuran-3-yl)methyl)-2H-indazole-5-carboxamide] | 1.8 | 3.1 | – |
| COc1ncccc1NC(=O)c1cc2cn(CCC(C)(C)O)nc2nc1OC(C)C [Example 40, 2-(3-Hydroxy-3-methylbutyl)-6-isopropoxy-N-(2-methoxypyridin-3-yl)-2H-pyrazolo[3,4-b]pyridine-5-carboxamide] | 0.7 | 5.7 | – |
| CC(C)Oc1cc2nn(C)cc2cc1C(=O)Nc1cccc(C(F)F)n1 [Example 41, N-(6-(difluoromethyl)pyridin-2-yl)-6-isopropoxy-2-methyl-2H-indazole-5-carboxamide] | 3.2 | 0.3 | – |
| Cl.O=C(Nc1cccc(C(F)F)n1)c1cc2cn(C3CCOCC3)nc2cc1O[C@H]1C[C@H](C(F)F)C1 [Example 48, 6-((1R,3R)-3-(difluoromethyl)cyclobutoxy)-N-(6-(difluoromethyl)pyridin-2-yl)-2-(tetrahydro-2H-pyran-4-yl)-2H-indazole-5-carboxamide Hydrochloride] | 0.5 | 1.3 | – |
| Cl.O=C(Nc1cccc(C(F)F)n1)c1cc2cn(C3CCOCC3)nc2cc1OCC1CC(F)(F)C1 [Example 49, 6-((3,3-Difluorocyclobutyl)methoxy)-N-(6-(difluoromethyl)pyridin-2-yl)-2-(tetrahydro-2H-pyran-4-yl)-2H-indazole-5-carboxamide Hydrochloride] | 2 | 1.4 | – |
| CO[C@H]1C[C@H](Oc2cc3nn(C4CCOCC4)cc3cc2C(=O)Nc2cccc(C(F)F)n2)C1.Cl [Example 50, N-(6-(difluoromethyl)pyridin-2-yl)-6-((1R,3R)-3-methoxycyclobutoxy)-2-(tetrahydro-2H-pyran-4-yl)-2H-indazole-5-carboxamide Hydrochloride] | 0.2 | 1.4 | – |
| CC(C)Oc1cc2nn(C3CCOCC3)cc2cc1C(=O)Nc1cccc2ccnn12 [Example 51, 6-Isopropoxy-N-(pyrazolo[1,5-a]pyridin-7-yl)-2-(tetrahydro-2H-pyran-4-yl)-2H-indazole-5-carboxamide] | 1.3 | 0.9 | – |
| CC(C)Oc1nc2nn(CC3CCOC3)cc2cc1C(=O)Nc1cnn2cccnc12 (centres unmarked) [Example 54, 6-Isopropoxy-N-(pyrazolo[1,5-a]pyrimidin-3-yl)-2-((tetrahydrofuran-3-yl)methyl)-2H-pyrazolo[3,4-b]pyridine-5-carboxamide] | – | 3.6 | 1.3 |
| Cc1cnc2c(NC(=O)c3cc4cn(C56COC(C)(C5)C6)nc4cc3OC3CCC3)cnn2c1 [Example 56, 6-Cyclobutoxy-2-(1-methyl-2-oxabicyclo[2.1.1]hexan-4-yl)-N-(6-methylpyrazolo[1,5-a]pyrimidin-3-yl)-2H-indazole-5-carboxamide Trifluoroacetate] | 0.5 | 2 | – |
| CC(C)Oc1cc2nn(C34CCC(C)(C3)OC4)cc2cc1C(=O)Nc1cccn(C)c1=O (centres unmarked) [Example 57, 6-Isopropoxy-N-(1-methyl-2-oxo-1,2-dihydropyridin-3-yl)-2-(1-methyl-2-oxabicyclo[2.2.1]heptan-4-yl)-2H-indazole-5-carboxamide] | 0.8 | 1.1 | – |
